Measurements published in patent publication US8686044B2, “Amide derivative, pest control agent containing the amide derivative, and use of the amide derivative” (Mitsui Chemicals Agro, Inc., priority 2008, dated 2014).

How the values were obtained:
Format in all cases: in vivo
Helicoverpa armigera = test: Pesticidal test against Helicoverpa armigera (cabbage leaf disk dip); details: foliar, 72 h, concentration 1 ppm, 2-stage larvae, examined after 3 days, 25° C., read-out: pesticidal rate
In short: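 Cabbage leaf disks were dipped for 30 s in test solution at a set concentration and air-dried. Second-instar larvae were placed one per hole and held at 25 °C, with live and dead counts taken after 3 days. Five larvae per group were tested in two replicates.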

Adoxophyes honmai = test: Pesticidal test against Adoxophyes honmai (artificial feed dip); details: 144 h, 2-stage larvae, examined after 6 days, 25° C., read-out: pesticidal rate; for pest or weed control at 10 ppm: concentration 10 ppm; for pest or weed control at 1 ppm: concentration 1 ppm
In short: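 Thin artificial feed slices dipped 30 s in test solution at a predetermined concentration, air-dried, then offered to 2nd-stage larvae. Kept at 25° C; live and dead larvae counted after 6 days. Five larvae per group, two replicates.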

Choristoneura magnanima = test: Pesticidal test against Choristoneura magnanima (artificial feed dip); details: 144 h, 2-stage larvae, examined after 6 days, 25° C., read-out: pesticidal rate; for pest or weed control at 1 ppm: concentration 1 ppm
In short: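 Thin artificial feed slices dipped 30 s in compound solution at a set concentration, air-dried, then offered to 2nd-stage larvae held at 25° C. Living and dead larvae counted after 6 days; five larvae per group, two replicates.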

Spodoptera litura = test: Pesticidal test against Spodoptera litura (cabbage leaf dip); details: foliar, 144 h, concentration 1 ppm, 2-stage larvae, examined after 6 days, 25° C., read-out: pesticidal rate
In short: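 Cabbage leaf pieces dipped 30 seconds in compound solution at a predetermined concentration and air-dried, then offered to second-stage larvae, five per group in two replicates. Held at 25° C. Living and dead larvae counted after 6 days.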

Plutella xylostella = test: Pesticidal test against Plutella xylostella (cabbage leaf dip); details: foliar, 144 h, concentration 1 ppm, 2-stage larvae, examined after 6 days, 25° C., read-out: pesticidal rate
In short: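 Cabbage leaf pieces dipped 30 s in test solution at a predetermined concentration, air-dried, then offered to 2nd-instar larvae, five per group in duplicate. Held at 25° C; living and dead larvae counted after 6 days.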

Musca domestica = test: Pesticidal test against Musca domestica (petri dish dry film); details: 24 h, concentration 100 ppm, female adults, examined after 1 day, 25° C., read-out: pesticidal rate
In short: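 Dry film from 1 ml acetone solution of compound at a predetermined concentration, air-dried in a 9 cm petri dish; female adult flies released and dish capped. Held at 25° C; living and dead counted after 1 day. Five insects per group, two replicates.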

Blattella germanica = test: Pesticidal test against Blattella germanica (petri dish dry film); details: 24 h, concentration 100 ppm, female adults, examined after 1 day, 25° C., read-out: pesticidal rate
Experimental: Pesticidal Test against Blattella germanica
1 ml of an acetone solution in which a test compound had been prepared at a predetermined concentration was added dropwise to a petri dish having a diameter of 9 cm, and air-dried, and then the female adults of Blattella germanica were released and the petri dish was capped. They were left to stand in a thermostatic chamber at 25° C., and the numbers of the living pests and the dead pests were examined after 1 day. The test was carried out with five larvae per group in two replicates.

Laodelphax striatellus = test: Pesticidal test against Laodelphax striatellus (rice seedling spray); details: 144 h, concentration 100 ppm, 3-stage larvae, examined after 6 days, 25° C., read-out: pesticidal rate
In short: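 Rice seedlings sprayed with 2.5 ml acetone solution of compound at a predetermined concentration, air-dried, then infested with third-stage Laodelphax striatellus larvae in capped water-containing tubes at 25 °C. Living and dead insects counted after 6 days; ten larvae per group, two replicates.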

CN(C(=O)c1ccc(Cl)nc1)c1cccc(C(=O)Nc2c(I)cc(C(F)(C(F)(F)F)C(F)(F)C(F)(F)F)cc2C(F)(F)F)c1F (centres unmarked) [7-1851]
≥ 70%: pest or weed control at 1 ppm (Helicoverpa armigera) | pest or weed control at 10 ppm (Adoxophyes honmai) | pest or weed control at 1 ppm (Choristoneura magnanima) | pest or weed control at 1 ppm (Spodoptera litura) | pest or weed control at 1 ppm (Plutella xylostella) | pest or weed control at 100 ppm (Musca domestica) | pest or weed control at 100 ppm (Blattella germanica) | pest or weed control at 100 ppm (Laodelphax striatellus)

CN(C(=O)c1cccnc1Cl)c1cccc(C(=O)Nc2c(I)cc(C(F)(C(F)(F)F)C(F)(F)C(F)(F)F)cc2C(F)(F)F)c1 (centres unmarked) [7-538]
≥ 70%: pest or weed control at 1 ppm (Helicoverpa armigera) | pest or weed control at 1 ppm (Adoxophyes honmai) | pest or weed control at 10 ppm (Choristoneura magnanima; concentration 10 ppm) | pest or weed control at 1 ppm (Spodoptera litura) | pest or weed control at 1 ppm (Plutella xylostella) | pest or weed control at 100 ppm (Musca domestica) | pest or weed control at 100 ppm (Blattella germanica) | pest or weed control at 100 ppm (Laodelphax striatellus)

CN(C(=O)c1ccc(C#N)cc1)c1cccc(C(=O)Nc2c(Br)cc(C(F)(C(F)(F)F)C(F)(F)F)cc2Br)c1F [7-1125]
≥ 70%: pest or weed control at 1 ppm (Helicoverpa armigera) | pest or weed control at 1 ppm (Choristoneura magnanima) | pest or weed control at 1 ppm (Spodoptera litura) | pest or weed control at 1 ppm (Plutella xylostella) | pest or weed control at 100 ppm (Blattella germanica) | pest or weed control at 100 ppm (Laodelphax striatellus)

N#Cc1ccc(C(=O)Nc2cccc(C(=O)Nc3c(Br)cc(C(F)(C(F)(F)F)C(F)(F)F)cc3C(F)(F)F)c2F)cc1 [6-1595]
≥ 70%: pest or weed control at 1 ppm (Helicoverpa armigera) | pest or weed control at 1 ppm (Choristoneura magnanima) | pest or weed control at 1 ppm (Spodoptera litura) | pest or weed control at 1 ppm (Plutella xylostella) | pest or weed control at 100 ppm (Blattella germanica) | pest or weed control at 100 ppm (Laodelphax striatellus)

O=C(Nc1cccc(C(=O)Nc2c(I)cc(C(F)(C(F)(F)F)C(F)(F)F)cc2C(F)(F)F)c1F)c1cccc(F)c1 [6-1732]
≥ 70%: pest or weed control at 1 ppm (Helicoverpa armigera) | pest or weed control at 1 ppm (Adoxophyes honmai) | pest or weed control at 1 ppm (Choristoneura magnanima) | pest or weed control at 1 ppm (Spodoptera litura) | pest or weed control at 1 ppm (Plutella xylostella) | pest or weed control at 100 ppm (Musca domestica) | pest or weed control at 100 ppm (Blattella germanica) | pest or weed control at 100 ppm (Laodelphax striatellus)

CN(C(=O)c1cccc(C#N)c1)c1cccc(C(=O)Nc2c(I)cc(C(F)(C(F)(F)F)C(F)(F)F)cc2C(F)(F)F)c1 [7-444]
≥ 70%: pest or weed control at 1 ppm (Helicoverpa armigera) | pest or weed control at 10 ppm (Adoxophyes honmai) | pest or weed control at 1 ppm (Choristoneura magnanima) | pest or weed control at 1 ppm (Spodoptera litura) | pest or weed control at 1 ppm (Plutella xylostella) | pest or weed control at 100 ppm (Musca domestica) | pest or weed control at 100 ppm (Blattella germanica) | pest or weed control at 100 ppm (Laodelphax striatellus)

O=C(Nc1cccc(C(=O)Nc2c(Br)cc(C(F)(C(F)(F)F)C(F)(F)F)cc2Br)c1F)c1cccc(F)c1 [6-1106]
≥ 70%: pest or weed control at 1 ppm (Helicoverpa armigera) | pest or weed control at 1 ppm (Adoxophyes honmai) | pest or weed control at 1 ppm (Choristoneura magnanima) | pest or weed control at 1 ppm (Spodoptera litura) | pest or weed control at 1 ppm (Plutella xylostella) | pest or weed control at 100 ppm (Blattella germanica) | pest or weed control at 100 ppm (Laodelphax striatellus)

N#Cc1ccc(C(=O)Nc2cccc(C(=O)Nc3c(I)cc(C(F)(C(F)(F)F)C(F)(F)F)cc3C(F)(F)F)c2F)cc1 [6-1751]
≥ 70%: pest or weed control at 1 ppm (Helicoverpa armigera) | pest or weed control at 1 ppm (Choristoneura magnanima) | pest or weed control at 1 ppm (Spodoptera litura) | pest or weed control at 1 ppm (Plutella xylostella) | pest or weed control at 100 ppm (Musca domestica) | pest or weed control at 100 ppm (Blattella germanica) | pest or weed control at 100 ppm (Laodelphax striatellus)

O=C(Nc1cccc(C(=O)Nc2c(I)cc(C(F)(C(F)(F)F)C(F)(F)C(F)(F)F)cc2C(F)(F)F)c1F)c1ccc(F)cc1 (centres unmarked) [6-1811]
≥ 70%: pest or weed control at 1 ppm (Helicoverpa armigera) | pest or weed control at 1 ppm (Adoxophyes honmai) | pest or weed control at 1 ppm (Choristoneura magnanima) | pest or weed control at 1 ppm (Spodoptera litura) | pest or weed control at 1 ppm (Plutella xylostella) | pest or weed control at 100 ppm (Musca domestica) | pest or weed control at 100 ppm (Blattella germanica) | pest or weed control at 100 ppm (Laodelphax striatellus)

CN(C(=O)c1ccc(Cl)nc1)c1cccc(C(=O)Nc2c(I)cc(C(F)(C(F)(F)F)C(F)(F)F)cc2C(F)(F)F)c1F [7-1773]
≥ 70%: pest or weed control at 1 ppm (Helicoverpa armigera) | pest or weed control at 10 ppm (Adoxophyes honmai) | pest or weed control at 1 ppm (Choristoneura magnanima) | pest or weed control at 1 ppm (Spodoptera litura) | pest or weed control at 1 ppm (Plutella xylostella) | pest or weed control at 100 ppm (Musca domestica) | pest or weed control at 100 ppm (Blattella germanica) | pest or weed control at 100 ppm (Laodelphax striatellus)

CN(C(=O)c1ccccc1)c1cccc(C(=O)Nc2c(I)cc(C(F)(C(F)(F)F)C(F)(F)C(F)(F)F)cc2C(F)(F)F)c1 (centres unmarked) [7-502]
≥ 70%: pest or weed control at 1 ppm (Helicoverpa armigera) | pest or weed control at 1 ppm (Adoxophyes honmai) | pest or weed control at 1 ppm (Choristoneura magnanima) | pest or weed control at 1 ppm (Spodoptera litura) | pest or weed control at 1 ppm (Plutella xylostella) | pest or weed control at 100 ppm (Blattella germanica)

CN(C(=O)c1ccc(C#N)cc1)c1cccc(C(=O)Nc2c(Br)cc(C(F)(C(F)(F)F)C(F)(F)F)cc2C(F)(F)F)c1F [7-1595]
≥ 70%: pest or weed control at 1 ppm (Helicoverpa armigera) | pest or weed control at 1 ppm (Choristoneura magnanima) | pest or weed control at 1 ppm (Spodoptera litura) | pest or weed control at 1 ppm (Plutella xylostella) | pest or weed control at 100 ppm (Blattella germanica) | pest or weed control at 100 ppm (Laodelphax striatellus)

CN(C(=O)c1ccc(Cl)nc1)c1cccc(C(=O)Nc2c(Br)cc(C(F)(C(F)(F)F)C(F)(F)C(F)(F)F)cc2C(F)(F)F)c1 (centres unmarked) [7-389]
≥ 70%: pest or weed control at 1 ppm (Helicoverpa armigera) | pest or weed control at 1 ppm (Choristoneura magnanima) | pest or weed control at 1 ppm (Spodoptera litura) | pest or weed control at 1 ppm (Plutella xylostella) | pest or weed control at 100 ppm (Musca domestica) | pest or weed control at 100 ppm (Blattella germanica) | pest or weed control at 100 ppm (Laodelphax striatellus)

N#Cc1ccc(C(=O)Nc2cccc(C(=O)Nc3c(Br)cc(C(F)(C(F)(F)F)C(F)(F)C(F)(F)F)cc3C(F)(F)F)c2)cc1 (centres unmarked) [6-367]
≥ 70%: pest or weed control at 1 ppm (Helicoverpa armigera) | pest or weed control at 10 ppm (Adoxophyes honmai) | pest or weed control at 1 ppm (Choristoneura magnanima) | pest or weed control at 1 ppm (Spodoptera litura) | pest or weed control at 1 ppm (Plutella xylostella) | pest or weed control at 100 ppm (Blattella germanica)

CN(C(=O)c1cccc(C#N)c1)c1cccc(C(=O)Nc2c(Br)cc(C(F)(C(F)(F)F)C(F)(F)F)cc2C(F)(F)F)c1F [7-1594]
≥ 70%: pest or weed control at 1 ppm (Helicoverpa armigera) | pest or weed control at 1 ppm (Adoxophyes honmai) | pest or weed control at 1 ppm (Choristoneura magnanima) | pest or weed control at 1 ppm (Spodoptera litura) | pest or weed control at 1 ppm (Plutella xylostella) | pest or weed control at 100 ppm (Blattella germanica) | pest or weed control at 100 ppm (Laodelphax striatellus)

N#Cc1cccc(C(=O)Nc2cccc(C(=O)Nc3c(Br)cc(C(F)(C(F)(F)F)C(F)(F)F)cc3C(F)(F)F)c2F)c1 [6-1594]
≥ 70%: pest or weed control at 1 ppm (Helicoverpa armigera) | pest or weed control at 1 ppm (Adoxophyes honmai) | pest or weed control at 1 ppm (Spodoptera litura) | pest or weed control at 1 ppm (Plutella xylostella) | pest or weed control at 100 ppm (Musca domestica) | pest or weed control at 100 ppm (Blattella germanica) | pest or weed control at 100 ppm (Laodelphax striatellus)

O=C(Nc1cccc(C(=O)Nc2c(I)cc(C(F)(C(F)(F)F)C(F)(F)F)cc2C(F)(F)F)c1)c1cccc(F)c1 [6-426]
≥ 70%: pest or weed control at 1 ppm (Helicoverpa armigera) | pest or weed control at 10 ppm (Adoxophyes honmai) | pest or weed control at 1 ppm (Choristoneura magnanima) | pest or weed control at 1 ppm (Spodoptera litura) | pest or weed control at 1 ppm (Plutella xylostella) | pest or weed control at 100 ppm (Musca domestica) | pest or weed control at 100 ppm (Blattella germanica)

CN(C(=O)c1ccc(F)cc1)c1cccc(C(=O)Nc2c(Br)cc(C(F)(C(F)(F)F)C(F)(F)F)cc2Br)c1F [7-1107]
≥ 70%: pest or weed control at 1 ppm (Helicoverpa armigera) | pest or weed control at 1 ppm (Choristoneura magnanima) | pest or weed control at 1 ppm (Spodoptera litura) | pest or weed control at 1 ppm (Plutella xylostella) | pest or weed control at 100 ppm (Musca domestica) | pest or weed control at 100 ppm (Blattella germanica) | pest or weed control at 100 ppm (Laodelphax striatellus)

CN(C(=O)c1ccc(F)cc1)c1cccc(C(=O)Nc2c(I)cc(C(F)(C(F)(F)F)C(F)(F)C(F)(F)F)cc2C(F)(F)F)c1 (centres unmarked) [7-505]
≥ 70%: pest or weed control at 1 ppm (Helicoverpa armigera) | pest or weed control at 1 ppm (Adoxophyes honmai) | pest or weed control at 1 ppm (Choristoneura magnanima) | pest or weed control at 1 ppm (Spodoptera litura) | pest or weed control at 1 ppm (Plutella xylostella) | pest or weed control at 100 ppm (Blattella germanica)

O=C(Nc1c(I)cc(C(F)(C(F)(F)F)C(F)(F)C(F)(F)F)cc1C(F)(F)F)c1cccc(NC(=O)c2ccccc2F)c1 (centres unmarked) [6-503]
≥ 70%: pest or weed control at 1 ppm (Helicoverpa armigera) | pest or weed control at 1 ppm (Adoxophyes honmai) | pest or weed control at 1 ppm (Spodoptera litura) | pest or weed control at 1 ppm (Plutella xylostella) | pest or weed control at 100 ppm (Musca domestica) | pest or weed control at 100 ppm (Blattella germanica) | pest or weed control at 100 ppm (Laodelphax striatellus)

CN(C(=O)c1ccc(Cl)nc1)c1cccc(C(=O)Nc2c(Br)cc(C(F)(C(F)(F)F)C(F)(F)F)cc2C(F)(F)F)c1F [7-1617]
≥ 70%: pest or weed control at 1 ppm (Helicoverpa armigera) | pest or weed control at 1 ppm (Choristoneura magnanima) | pest or weed control at 1 ppm (Spodoptera litura) | pest or weed control at 1 ppm (Plutella xylostella) | pest or weed control at 100 ppm (Blattella germanica) | pest or weed control at 100 ppm (Laodelphax striatellus)
